The subject of one data set is VEGF. Nature of the data set: VEGF mRNA expression in mesenterium by semiquantitative RT-PCR. The data set is classed as in vivo, Sprague-Dawley rats. The following applies: peritoneal tissue, uremic rats with PD plus pyridoxamine, FIG. 7B. The text has this: (§1) Six-week-old male Sprague-Dawley rats weighing 200±3 g (CLER Japan, Inc., Tokyo) were randomly assigned to: sham-operated control rats (Group 1: n=6); uremic rats without peritoneal dialysis (Group 2: n=12); and uremic rats undergoing peritoneal dialysis (n=24). The uremic rats undergoing peritoneal dialysis were further divided into two groups: a group dialyzed with 4.25% Dianeal (registered trademark) (3.86% glucose, 2.5 mEq/CAPD fluid, Baxter Healthcare Corp., Round Lake; IL, USA) (Group 3: n=12); and a group peritoneally dialyzed with 4.25% Dianeal (registered trademark) containing pyridoxamine (Pridorine, Biostratum Inc., NC, USA) at 5 mg/l (Group 4: n=12). […]
(§2) Expression of VEGF or FGF2 (mesenterium) mRNA was analyzed by using semiquantitative reverse transcriptase-polymerase chain reaction (RT-PCR). […]
(§3) β-actin was used as an internal standard of RNA to enable comparison of RNA levels among different samples. […] The PCR products that were resolved by electrophoresis on a 2% agarose gel and stained using ethidium bromide were quantified by measuring the signal intensity with a quantitation program (NIH image software). The mRNA was determined in triplicate and the results were averaged for each experiment. […] The results were averaged and expressed as means±SD. […]

The test system of data set [1] is vessels in the peritoneal tissue. Put plainly: Number of vessels in mesenterium (von Willebrand factor staining, image analysis). The data set is classed as in vivo, Sprague-Dawley rats. The conditions noted are these: uremic rats with PD plus pyridoxamine; uremia alone 1.87-fold, PD 5.83-fold. From the text:
(§4) Six-week-old male Sprague-Dawley rats weighing 200±3 g (CLER Japan, Inc., Tokyo) were randomly assigned to: sham-operated control rats (Group 1: n=6); uremic rats without peritoneal dialysis (Group 2: n=12); and uremic rats undergoing peritoneal dialysis (n=24). The uremic rats undergoing peritoneal dialysis were further divided into two groups: a group dialyzed with 4.25% Dianeal (registered trademark) (3.86% glucose, 2.5 mEq/CAPD fluid, Baxter Healthcare Corp., Round Lake; IL, USA) (Group 3: n=12); and a group peritoneally dialyzed with 4.25% Dianeal (registered trademark) containing pyridoxamine (Pridorine, Biostratum Inc., NC, USA) at 5 mg/l (Group 4: n=12).
(§5) Uremic models were generated by 5/6 nephrectomy according to previous reports [Lameire N, et al. Kidney Int 54: 2194-2206, 1998; and Kleinknecht C, et al., Kidney Int 47: S51-S54, 1995]. […]
(§6) After 6 weeks of PD, 4.25% Dianeal (registered trademark) was injected from the access port and a peritoneal equilibration test (60 minutes) was performed. […] Mesenterium was excised and assessed by light microscopy or immunohistochemistry. […]
The number of vessels was assessed in the sections stained for von Willebrand factor by image analysis using a WinROOF software (Mitani. Corporation, Tokyo). […]

A short description of data set [2]: Biochemical data and body weight of subtotally nephrectomized uremic rats undergoing peritoneal dialysis. The data set is classed as in vivo. The following applies: 6-week PD with pyridoxamine 5 mg/l (Group 4), 21 weeks, mean ± SD.
From the text: as §4, §5
(§7) After 6 weeks of PD, 4.25% Dianeal (registered trademark) was injected from the access port and a peritoneal equilibration test (60 minutes) was performed. […] Mesenterium was excised and assessed by light microscopy or immunohistochemistry.
(§8) The concentrations of glucose, creatinine, urea, total cholesterol, and triglyceride in plasma and peritoneal dialysate were measured with an autoanalyzer (Hitachi 736-60, Hitachi Co. Ltd., Tokyo).

In data set [3] the test system is peritoneal membrane of uremic rats. Put plainly: Functional analysis of peritoneal membrane by peritoneal equilibration test (PET). The data set is classed as in vivo, Sprague-Dawley rats.
From the text: as §4
Uremic models were generated by 5/6 nephrectomy according to previous reports [Lameire N, et al. Kidney Int 54: 2194-2206, 1998; and Kleinknecht C, et al., Kidney Int 47: S51-S54, 1995]. The animals were provided free access to standard experimental rat chow (CE2: CLER Japan, Inc., Tokyo) containing 1.06% calcium, 0.9% phosphate, and 21% proteins, and tap water until the evening prior to slaughter. On the 13th week, Rat-o-Ports with a 13.5 cm catheter (Access Technologies, Norfolk Medical, Skokie, Ill., USA) were implanted into all the rats under anesthetization of isoflurane. The Rat-o-ports were implanted subcutaneously in the neck, after one week of which the peritoneal dialysis with 30 ml of dialysate was initiated twice a day. The PD was continued for 6 weeks [Zweers MM, et al., Nephrol Dial Transplant 16: 651-654, 2001]. Before the initiation of the peritoneal dialysis, four, five, and two rats had died respectively in Group 2, Group 3, and Group 4. […]
as §7, §8
The dialysate/plasma (D/P) ratio of Cr (A) and urea (B), and the absorption of glucose from the dialysate (D/D0) (C) were assessed, during a 60-minute exchange with 20 ml of 3.85% glucose dialysate, in control rats (Group 1), uremic rats without PD (Group 2), uremic rats undergoing peritoneal dialysis in the absence of pyridoxamine (Group 3), and uremic rats undergoing peritoneal dialysis in the presence of 5 mg/L pyridoxamine (Group 4). a: p<0.01 vs. Group 1. b: p<0.01 vs. Group 2. c: p<0.01 vs. Group 3. d: p<0.01 vs. Group 4. e: p<0.05 vs. Group 3. f: p<0.05 vs. Group 4.

The test system of data set [4] is pentosidine (AGE and carbonyl stress marker). Nature of the data set: Pentosidine content in peritoneal membrane by HPLC. It counts as in vivo, Sprague-Dawley rats.
From the text: as §4, §5, §7
The pentosidine content in the rat peritoneal membrane was assessed as follows, using HPLC in accordance with an already-reported method [Miyata T, et al., J. Am. […] The effluent was monitored using a fluorescence detector (RF-10A: Shimadzu, Tokyo) at an excitation-emission wavelength of 335/385 nm. […]

The test system of the next data set is FGF-2. Put plainly: FGF-2 mRNA expression in mesenterium by semiquantitative RT-PCR. The data set is classed as in vivo, Sprague-Dawley rats. The following applies: peritoneal tissue, uremic rats with PD plus pyridoxamine, FIG. 7C.
From the text: as §1, §2, §3

For data set [5], the system named is VEGF, FGF-2, vWF, AGEs, and TGF-β1. Put plainly: Immunohistochemical analysis of mesenterium tissue sections. It counts as in vivo, Sprague-Dawley rats. The conditions noted are these: rats treated with pyridoxamine; prominent in uremic rats with PD, FIG. 8.
From the text: as §4
Uremic models were generated by 5/6 nephrectomy according to previous reports [Lameire N, et al. Kidney Int 54: 2194-2206, 1998; and Kleinknecht C, et al., Kidney Int 47: S51-S54, 1995]. The animals were provided free access to standard experimental rat chow (CE2: CLER Japan, Inc., Tokyo) containing 1.06% calcium, 0.9% phosphate, and 21% proteins, and tap water until the evening prior to slaughter. […]
as §6

As for `Cc1ncc(CO)c(CN)c1O` [pyridoxamine], the “VEGF mRNA expression (ratio over β-actin)” value in the data set with VEGF is “equivalent levels to those of uremic rats without PD”. For the same molecule, in data set [1], the “Increase in vessel number (ratio to number of vessels of healthy control animals)” value is 2.68 fold. In data set [2], this molecule showed a Body weight of 419 ± 29 g. The “Absorption rate of glucose from the dialysate (D/D0)” value in data set [3] (6-week treatment, pyridoxamine 5 mg/L in dialysate, 60-minute PET, vs Group 3) is “significantly lowered”. In addition, the “Transport rate of small solutes (creatinine, urea) from the plasma (D/P ratio)” value in data set [3] (6-week treatment, pyridoxamine 5 mg/L in dialysate, 60-minute PET, vs uremic PD rats without pyridoxamine (Group 3)) is “significantly lowered”. Moreover, in data set [3] (Group 4, FIGS. 3A and B), the “Slope of the regression line between increased permeability for small solutes (creatinine and glucose) and degree of renal failure” value is listed as “dramatically lowered”. The “Influence of uremia on membrane permeability” value in data set [3] (pyridoxamine treatment, uremic rats with PD) is given as “completely dissipated”. The “Slope of the regression line between pentosidine content and renal failure” value in data set [4] (Group 4, FIG. 5B, in words) is “lowered the slope of the regression line”. Besides, the Tissue pentosidine content result in data set [4] (Group 4 vs Group 3, FIG. 5A) is given as “significantly lowered”. The “FGF-2 mRNA expression (ratio over β-actin)” value with FGF-2 is given as “equivalent levels to those of uremic rats without PD”. In addition, in data set [5], the “VEGF, FGF-2, vWF, AGEs, and TGF-β1 stainings in capillaries of the mesenterium” value is recorded as “only faint stainings”.

(Values after patent publication US20110021579A1, “PERITONEUM PROTECTING AGENT” (TOKAI UNIVERSITY EDUCATIONAL SYSTEM, priority 2005, published 2011).)
